Our source for the EC90 and Ki values is patent US20060100245A1, “Substituted biphenyl-4-carboxylic acid arylamide analogues” (Neurogen Corporation, priority 2002, published 2006).

The term Ki denotes the equilibrium dissociation constant of an inhibitor or competing ligand from its target.

The target of one assay is T1, human capsaicin receptor (Homo sapiens, UniProt Q8NER1).
T1 construct: transfected with the pBK-CMV expression construct encoding the full length human capsaicin receptor; expressed in transfected cells
T1 sequence (Q8NER1 whole entry): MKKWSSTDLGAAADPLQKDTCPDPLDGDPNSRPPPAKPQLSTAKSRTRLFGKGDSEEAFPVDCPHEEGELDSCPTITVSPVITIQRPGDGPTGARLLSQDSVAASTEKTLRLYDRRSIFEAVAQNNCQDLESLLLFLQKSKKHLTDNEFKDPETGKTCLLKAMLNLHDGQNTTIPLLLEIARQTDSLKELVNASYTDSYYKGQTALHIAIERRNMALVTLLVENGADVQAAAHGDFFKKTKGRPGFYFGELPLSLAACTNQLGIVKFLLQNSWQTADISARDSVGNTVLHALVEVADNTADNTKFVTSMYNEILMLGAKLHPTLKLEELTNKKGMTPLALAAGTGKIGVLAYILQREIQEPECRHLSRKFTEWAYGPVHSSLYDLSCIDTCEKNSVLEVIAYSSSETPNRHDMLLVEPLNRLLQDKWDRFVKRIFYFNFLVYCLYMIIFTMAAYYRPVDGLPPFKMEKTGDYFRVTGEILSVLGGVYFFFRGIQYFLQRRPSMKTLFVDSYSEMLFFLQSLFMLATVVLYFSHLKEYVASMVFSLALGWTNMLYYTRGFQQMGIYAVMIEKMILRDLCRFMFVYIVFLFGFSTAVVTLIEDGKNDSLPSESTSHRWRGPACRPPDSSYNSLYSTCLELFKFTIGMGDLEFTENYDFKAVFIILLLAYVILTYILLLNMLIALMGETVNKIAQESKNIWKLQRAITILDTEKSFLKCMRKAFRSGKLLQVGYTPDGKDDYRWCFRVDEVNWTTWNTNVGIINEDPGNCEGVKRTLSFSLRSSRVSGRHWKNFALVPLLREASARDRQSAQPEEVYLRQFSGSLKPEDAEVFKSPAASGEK
The experiment in a line: Calcium mobilization assay, determination of agonist activity. Type of assay: cell-based. The following applies: capsaicin positive control, cells expressing human capsaicin receptor; read-out: approximate EC90 concentration. How it is done: This Example illustrates representative calcium mobilization assays for use in evaluating test compounds for agonist and antagonist activity.
Cells transfected with expression plasmids (as described in Example 4) and thereby expressing human capsaicin receptor are seeded and grown to 70-90% confluency in FALCON black-walled, clear-bottomed 96-well plates (#3904, BECTON-DICKINSON, Franklin Lakes, N.J.). […]
To measure the ability of a test compound to agonize or antagonize a calcium mobilization response in cells expressing capsaicin receptors to capsaicin or other vanilloid agonist, the EC50 of the agonist capsaicin is first determined. […] Capsaicin-induced calcium mobilization is monitored using either FLUOROSKAN ASCENT (Labsystems; Franklin, Mass.) or FLIPR (fluorometric imaging plate reader system; Molecular Devices, Sunnyvale, Calif.) instruments. […] In this equation, y is the maximum fluorescence signal, x is the concentration of the agonist or antagonist (in this case, capsaicin), a is the Emax, b corresponds to the EC50 value and c is the Hill coefficient. […]
The ability of a test compound to act as an agonist of the capsaicin receptor is determined by measuring the fluorescence response of cells expressing capsaicin receptors elicited by the compound as function of compound concentration.
On the technique in general: A change in cytosolic calcium serves as a functional read-out for many receptors and channels.

Assay [1] has as its target T2, human capsaicin receptor (VR1) (Homo sapiens, UniProt Q8NER1).
T2 construct: transfected with the pBK-CMV expression construct encoding the full length human capsaicin receptor; expressed in transfected cells
The experiment in a line: Capsaicin receptor binding assay ([3H]RTX competition). To be noted: read-out: Ki. A digest of the protocol: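 Membranes from HEK293 cells stably expressing full-length human VR1; competition against 60 pM [3H]RTX, 60 min at 37 °C in HEPES/sucrose buffer pH 7.4 with 0.25 mg/ml BSA. Non-specific binding defined with 1 μM unlabelled RTX; alpha1-acid glycoprotein added after termination on ice.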

T2 sequence (Q8NER1 whole entry): as above

In the case of `COc1cc(CNC(=O)CCCC/C=C/C(C)C)ccc1O` [capsaicin], the EC90 at human capsaicin receptor was around 100 nM. For the compound `CC(C)(C)c1ccc(NC(=O)c2ccc(C3CCCCN3)cc2)cc1` (centres unmarked) [Compound 429, N-(4-tert-Butyl-phenyl)-4-piperidin-2-yl-benzamide], the Ki in assay [1] was below 1000 nM. On the same count and under the same terms, under `CC(C)(C)c1ccc(NC(=O)c2ccc(-c3ncccc3C(F)(F)F)cc2)cc1` [Compound 421, N-(4-tert-Butyl-phenyl)-4-(3-trifluoromethyl-pyridin-2-yl)-benzamide] stands below 1000 nM; under `CC(C)(C)c1ccc(NC(=O)c2ccc(-c3ncccc3NS(=O)(=O)Cc3ccccc3)cc2)cc1` [Compound 417, N-(4-tert-Butyl-phenyl)-4-(3-phenylinethanesulfonylamino-pyridin-2-yl)-benzamide], below 1000 nM.

`CC(C)(C)c1ccc(NC(=O)c2ccc(-c3ncccc3CO)cc2)cc1` [Compound 412, N-(4-tert-Butyl-phenyl)-4-(3-hydroxymethyl-pyridin-2-yl)-benzamide]: the Ki in assay [1] was below 1000 nM.

`Cc1ccc(NC(=O)c2ccc(-c3ccccc3C)nc2)cc1C` [Compound 248, N-(3,4-Dimethyl-phenyl)-6-o-tolyl-nicotinamide]: the Ki in assay [1] is below 1000 nM. Same read-out and setting: under `Cc1cc(C)cc(-c2ccc(C(=O)Nc3ccc(C)c(C)c3)cn2)c1` [Compound 237, N-(3,4-Dimethyl-phenyl)-6-(3,5-dimethyl-phenyl)-nicotinamide] stands below 1000 nM; under `Cc1ccc(NC(=O)c2ccc(-c3cccc(OC(F)(F)F)c3)nc2)cc1C` [Compound 242, N-(3,4-Dimethyl-phenyl)-6-(3-trifluoromethoxy-phenyl)-nicotinamide], below 1000 nM.

`CCCCc1ccc(-c2ccc(C(=O)Nc3cccc(OC)c3)cn2)cc1` [Compound 137, 6-(4-Butyl-phenyl)-N-(3-methoxy-phenyl)-nicotinamide]: the Ki in assay [1] is below 1000 nM. For the compound `CC(C)(C)c1ccc(NC(=O)c2ccc(-c3c(F)cccc3F)nc2)cc1` [Compound 438, N-(4-tert-Butyl-phenyl)-6-(2,6-difluoro-phenyl)-nicotinamide], in assay [1], the Ki was below 1000 nM.

Consider `CC(C)(C)c1ccc(NC(=O)c2ccc(-c3ncccc3C(F)(F)F)cc2[N+](=O)[O-])cc1` [Compound 395, N-(4-tert-Butyl-phenyl)-2-nitro-4-(3-trifluoromethyl-pyridin-2-yl)-benzamide], for which the Ki in assay [1] was below 1000 nM.

For the compound `Cc1cccc(-c2ccc(C(=O)Nc3ccc(C)c(C)c3)cn2)c1` [Compound 247, N-(3,4-Dimethyl-phenyl)-6-m-tolyl-nicotinamide], the Ki in assay [1] was below 1000 nM. Regarding `CS(=O)(=O)Nc1cc(-c2ncccc2C(F)(F)F)ccc1C(=O)Nc1ccc(C(F)(F)F)cc1` [Compound 17, 2-Methanesulfonylamino-N-(4-trifluoromethyl-phenyl)-4-(3-trifluoromethyl-pyridin-2-yl)-benzamide], the Ki in assay [1] was below 1000 nM. As for `CCCc1ccc(NC(=O)c2ccc(-c3cc(Cl)ccc3OC)nc2)cc1` [Compound 157, 6-(5-Chloro-2-methoxy-phenyl)-N-(4-propyl-phenyl)-nicotinamide], the Ki in assay [1] was below 1000 nM. Turning to `O=C(Nc1ccc(F)cc1)c1ccc(-c2ncccc2F)cc1` [Compound 375, N-(4-Fluoro-phenyl)-4-(3-fluoro-pyridin-2-yl)-benzamide], the inhibition constant (Ki) in assay [1] was below 1000 nM. For the compound `CCOc1cccc(-c2ccc(C(=O)Nc3ccc4sc(C)nc4c3)cn2)c1` [Compound 119, 6-(3-Ethoxy-phenyl)-N-(2-smethyl-benzothiazol-5-yl)-nicotinamide], in assay [1], the Ki was below 1000 nM. `Cc1ccccc1-c1ccc(C(=O)Nc2ccc(C(C)C)cc2)cn1` [Compound 384, N-(4-Isopropyl-phenyl)-6-o-tolyl-nicotinamide]: the Ki in assay [1] was below 1000 nM. On the same count and under the same terms, with `CC(C)(C)c1ccc(NC(=O)c2cnc(-c3ccccc3Cl)cn2)cc1` [Compound 39, 5-(2-Chloro-phenyl)-pyrazine-2-carboxylic acid (4-tert-butyl-phenyl)-amide] the figure was below 1000 nM. Consider `Cc1ccccc1-c1ccc(C(=O)Nc2ccc(C(F)(F)F)cc2)cn1` [Compound 185, 6-o-Tolyl-N-(4-trifluoromethyl-phenyl)-nicotinamide], for which the Ki in assay [1] is below 1000 nM. On the same count and under the same terms, under `CC(C)c1ccc(NC(=O)c2ccc(-c3ncccc3F)cc2)cc1` [Compound 34, 4-(3-Fluoro-pyridin-2-yl)-N-(4-isopropyl-phenyl)-benzamide] stands below 1000 nM; under `COCC(C)(C)c1ccc(NC(=O)c2ccc(-c3ncccc3Cl)cc2)cc1` [Compound 31, 4-(3-Chloro-pyridin-2-yl)-N-[4-(2-methoxy-1,1-dimethyl-ethyl)-phenyl]-benzamide], below 1000 nM. Still for that read-out and setting: under `O=C(Nc1cnc2ccccc2c1)c1ccc(-c2ccccc2Cl)nc1` [Compound 82, 6-(2-Chloro-phenyl)-N-quinolin-3-yl-nicotinamide] stands below 1000 nM; under `CC(C)(C)c1ccc(NC(=O)c2ccc(-c3ccccc3N)nc2)cc1` [Compound 61, 6-(2-Amino-phenyl)-N-(4-tert-butyl-phenyl)-nicotinamide], below 1000 nM. In the case of `CN1CCCCC1c1ccc(C(=O)Nc2ccc(C(C)(C)C)cc2)cc1` (centres unmarked) [Compound 398, N-(4-tert-Butyl-phenyl)-4-(1-methyl-piperidin-2-yl)-benzamide], the inhibition constant Ki in assay [1] was below 1000 nM. Still for that read-out and setting: under `O=C(Nc1ccc(C(F)(F)F)cc1)c1ccc(-c2ncccc2[N+](=O)[O-])cc1` [Compound 36, 4-(3-Nitro-pyridin-2-yl)-N-(4-trifluoromethyl-phenyl)-benzamide] stands below 1000 nM; under `CC(C)(C)c1ccc(NC(=O)c2ccc(-c3ccccn3)cc2)cc1` [Compound 430, N-(4-tert-Butyl-phenyl)-4-pyridin-2-yl-benzamide], below 1000 nM; under `CCCc1ccc(NC(=O)c2ccc(-c3ccccc3Cl)nc2)cc1` [Compound 77, 6-(2-Chloro-phenyl)-N-(4-propyl-phenyl)-nicotinamide], below 1000 nM.

In the case of `CC(C)(C)c1ccc(NC(=O)c2ccc(C3CCCCN3S(C)(=O)=O)cc2)cc1` (centres unmarked) [Compound 397, N-(4-tert-Butyl-phenyl)-4-(1-methanesulfonyl-piperidin-2-yl)-benzamide], the Ki in assay [1] was below 1000 nM. On to `CC(C)(C)c1ccc(NC(=O)c2ccc(-c3ccc4[nH]ccc4c3)cc2)cc1` [Compound 396, N-(4-tert-Butyl-phenyl)-4-(1H-indol-5-yl)-benzamide], for which, in assay [1], the Ki was below 1000 nM. For the compound `CC(C)(C)c1ccc(NC(=O)c2ccc(-c3ccncc3)cc2)cc1` [Compound 432, N-(4-tert-Butyl-phenyl)-4-pyridin-4-yl-benzamide], the Ki in assay [1] was below 1000 nM.

Consider `CCCOc1cccnc1-c1ccc(C(=O)Nc2ccc(C(C)(C)C)cc2)cc1` [Compound 418, N-(4-tert-Butyl-phenyl)-4-(3-propoxy-pyridin-2-yl)-benzamide], for which, in assay [1], the Ki was below 1000 nM. Same read-out and setting: under `CC(C)(C)c1ccc(NC(=O)c2ccc(-c3ccccc3Cl)cn2)cc1` [Compound 40, 5-(2-Chloro-phenyl)-pyridine-2-carboxylic acid (4-tert-butyl-phenyl)-amide] stands below 1000 nM; under `O=C(Nc1ccc2c(c1)OCCCO2)c1ccc(-c2ccccc2)nc1` [Compound 230, N-(3,4-Dihydro-2H-benzo[b][1,4]dioxepin-7-yl)-6-phenyl-nicotinamide], below 1000 nM. For the compound `O=C(Nc1ccc(S(=O)(=O)C(F)(F)F)cc1)c1ccc(-c2ncccc2C(F)(F)F)cc1[N+](=O)[O-]` [Compound 18, 2-Nitro-N-(4-trifluoromethanesulfonyl-phenyl)-4-(3-trifluoromethyl-pyridin-2-yl)-benzamide], the Ki in assay [1] was below 1000 nM. Regarding `COc1cccc(-c2ccc(C(=O)Nc3ccc(C)c(C)c3)cn2)c1` [Compound 241, N-(3,4-Dimethyl-phenyl)-6-(3-methoxy-phenyl)-nicotinamide], the Ki in assay [1] was below 1000 nM.
